# Source: patent US5773444A, “Quinazolines as inhibitors of endothelin converting enzyme” (Warner-Lambert Company, priority 1997, dated 1998)
# Non-standard residues stand in square brackets, D forms with d. Residues, ends and D or L forms follow the SMILES beside them. No end group written: not given here.
# Legend:
# [1] = tested on: isolated nonischemic and ischemic rat hearts; settings: cited from earlier work; for preischemic increase in coronary perfusion pressure induced by big ET-1 and its proischemic effect: phosphoramidon 100 μM, BQ-123 0.3 μM; for IC50: isolated rat hearts, read-out: IC50, reduction of coronary flow; for time to contracture in globally ischemic rat hearts: pretreatment / 10 nMol big ET-1
# [2] = tested on: mouse model of endotoxic shock; settings: cited from earlier work
# [3] = tested on: ET-1-induced bronchoconstriction and tracheal smooth muscle contraction; settings: allergic sheep; cited from earlier work
# [4] = tested on: models of acute renal ischemia and subarachnoid hemorrhage in rats; settings: cited from earlier work
# [5] = tested on: caliber of the basilar artery and systemic arterial pressure; settings: anesthetized dogs, intracisternal big ET-1; cited from earlier work
# [6] = biological target: T1, endothelin converting enzyme (ECE) (Homo sapiens, UniProt P42892); experiment: ECE assay (partially purified ECE from EA.hy926, ET-1 production by RIA); type: biochemical; settings: 100 μM thiorphan or 100 nM phosphoramidon
# T1 construct: ECE was partially purified from EA.hy926 grown in 150 roller; endogenous in cells; host or cells: EA.hy926 (human umbilical vein endothelial cells fused with A549); detergent-solubilised membranes, RCA-I lectin eluate
# T1 sequence (P42892 whole entry, the tested form may be a part): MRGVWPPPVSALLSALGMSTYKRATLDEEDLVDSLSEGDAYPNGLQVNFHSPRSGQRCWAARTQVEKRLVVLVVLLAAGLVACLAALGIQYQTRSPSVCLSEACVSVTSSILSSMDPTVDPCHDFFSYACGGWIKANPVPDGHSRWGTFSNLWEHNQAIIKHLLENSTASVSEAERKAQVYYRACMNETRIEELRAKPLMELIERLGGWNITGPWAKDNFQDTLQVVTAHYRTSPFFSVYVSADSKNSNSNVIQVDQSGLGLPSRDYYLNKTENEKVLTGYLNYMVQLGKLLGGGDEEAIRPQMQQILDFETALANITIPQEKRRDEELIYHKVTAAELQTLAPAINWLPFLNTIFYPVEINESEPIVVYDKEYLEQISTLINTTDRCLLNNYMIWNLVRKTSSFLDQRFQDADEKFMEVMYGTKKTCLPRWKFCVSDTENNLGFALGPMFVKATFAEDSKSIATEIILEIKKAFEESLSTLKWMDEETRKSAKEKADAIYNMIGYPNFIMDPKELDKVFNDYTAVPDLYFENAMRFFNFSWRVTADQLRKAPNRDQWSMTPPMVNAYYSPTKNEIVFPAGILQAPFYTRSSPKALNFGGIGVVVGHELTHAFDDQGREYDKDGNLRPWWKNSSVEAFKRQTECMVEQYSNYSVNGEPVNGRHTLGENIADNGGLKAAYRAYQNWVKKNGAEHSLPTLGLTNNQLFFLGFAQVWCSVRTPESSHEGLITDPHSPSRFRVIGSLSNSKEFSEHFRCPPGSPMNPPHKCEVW
# [7] = tested on: intracellular conversion of big ET-1 to ET-1; settings: cultured vascular endothelial cells and smooth muscle cells; cited from earlier work
# [8] = tested on: vasoconstrictor effects evoked by intravenous injections of big ET-1; settings: anaesthetized pigs; cited from earlier work
# [9] = tested on: lethality induced by the intravenous infusion of big ET-1; settings: in vivo; cited from earlier work
# [10] = tested on: neutral endopeptidase 24.11 (NEP 24.11); experiment: NEP 24.11 inhibition under ECE assay conditions; type: biochemical, human; settings: 100 μM thiorphan or 100 nM phosphoramidon
# Description: The cell line, EA.hy926, contains neutral endopeptidase 24.11 (NEP 24.11) which also cleaves big ET-1 to ET-1 and c-terminal fragment (manuscript submitted). […] All the data were obtained in the linear range of time-course curves.
# [11] = tested on: pressor response of big ET; settings: micromolar concentrations, in vitro and in vivo; cited from earlier work
# [12] = tested on: pressor response of big ET-1; settings: ganglion-blocked anesthetized rats; cited from earlier work
# [13] = tested on: effects of big ET-1 in the microvasculature; settings: anesthetized hamsters; cited from earlier work
# [14] = tested on: hemodynamic actions of big ET-1 in rat brain; settings: cited from earlier work
# [15] = tested on: rats subjected to coronary occlusion and reperfusion; settings: given IV; cited from earlier work
# [16] = tested on: gastric mucosal hemorrhagic change; settings: 50-500 pmol/kg into the left gastric artery; cited from earlier work
# behavioral effects = settings: intracerebroventricular, rats; cited from earlier work
# blood pressure = settings: in vivo; cited from earlier work
compound,measurement,setting,value
CC(C)C[C@@H]1NC(=O)[C@@H](C(C)C)NC(=O)[C@@H]2CCCN2C(=O)[C@@H](CC(=O)O)NC(=O)[C@@H](Cc2c[nH]c3ccccc23)NC1=O [BQ-123] (cyclo(L[dW][dD]P[dV])),preischemic increase in coronary perfusion pressure induced by big ET-1 and its proischemic effect,[1],abolished
same,survival rate,[2],significantly increased the survival rate
same,ET-1-induced bronchoconstriction and tracheal smooth muscle contraction,[3],block ET-1-induced bronchoconstriction and tracheal smooth muscle contraction
COc1cccc(Oc2c(NS(=O)(=O)c3ccc(C(C)(C)C)cc3)ncnc2OCCO)c1 [RO 46-2005],efficacy in models of acute renal ischemia and subarachnoid hemorrhage,[4],effective
CC(C)C[C@H](NP(=O)(O)O[C@@H]1O[C@@H](C)[C@H](O)[C@@H](O)[C@H]1O)C(=O)N[C@@H](Cc1c[nH]c2ccccc12)C(=O)O [phosphoramidon],preischemic increase in coronary perfusion pressure induced by big ET-1 and its proischemic effect,[1],abolished
same,block of big ET-1 effects on basilar artery caliber and systemic arterial pressure,[5],These effects were blocked by phosphoramidon
same,effect on ECE activity at NEP-blocking concentration,[6],without affecting the ECE activity
same,inhibition of intracellular conversion of big ET-1 to ET-1,[7],inhibit the intracellular conversion of big ET-1 to ET-1
same,effect on plasma ET-1 level,[8],did not have any effect on the plasma ET-1 level
same,vasoconstrictor effects evoked by i.v. big ET-1,[8],inhibit vasoconstrictor effects
same,lethality induced by the intravenous infusion of big ET-1,[9],suppress the lethality
same,NEP 24.11 inhibition,[10],completely inhibited
same,block of pressor response of big ET,[11],block the pressor response of big ET
same,block of pressor response of big ET-1,[12],blocked by phosphoramidon in a dose-dependent manner
same,effects of big ET-1 in the microvasculature,[13],inhibit the effects of big ET-1
same,inhibition of hemodynamic actions of big ET-1,[14],phosphoramidon sensitive inhibition of hemodynamic actions of big ET-1
same,infarct size 24 hour postischemia,[15],significantly reduce infarct size
"ET-1: potent vasoconstrictor, is a 21 amino acid bicyclic peptide",IC50,[1],12 µM
same,time to contracture in globally ischemic rat hearts,[1],significantly reduced the time to contracture
same,"tissue type plasminogen activator release, platelet activating formation and gastric mucosal hemorrhagic change",[16],increased the tissue type plasminogen activator release and platelet activating formation and induced gastric mucosal hemorrhagic change in a dose-dependent manner
same,behavioral effects,behavioral effects,evoke behavioral effects
"big ET-1: 38 (human) or 39 (porcine) amino acid peptide known as big endothelin or proendothelin (CSCSSLMDKECVYFCHLDIIWVNTPEHVVPYGLGSPRS; ends and bridges not checked; cysteine pairing not given here; UniProt P05305 53-90, looked up)",IC50,[1],0.002 µM
same,time to contracture in globally ischemic rat hearts,[1],significantly reduced the time to contracture
same,potency at raising blood pressure relative to ET-1,blood pressure,equally potent in vivo
